Results published in patent publication EP1247803A2, “Indolinone compounds suitable for modulation of protein kinases” (Sugen, Inc., priority 1996, dated 1998).

Tests used:
[1] = molecular target: T1, FLK-1 receptor (Mus musculus, UniProt P35918); experiment: FLK-1 ELISA (kinase activity of the FLK-1 receptor in FLK-1/NIH3T3 cells, VEGF stimulated); format: cell-based
T1 construct: expressed in transfected cells; host or cells: NIH3T3 C7#3
Experimental: An enzyme linked immunosorbent assay (ELISA) was conducted to measure the catalytic activity of the FLK-1 receptor and more specifically, the inhibition or activation of indolinone compounds on the catalytic activity of the FLK-1 receptor. Specifically, the following assay was conducted to measure catalytic activity of the FLK-1 receptor in FLK-1/NIH3T3 cells.
The materials and protocol for the FLK-1 ELISA assay are as described in International Patent Publication No. WO 96/40116, published December 19, 1996 by Tang et al.
Selected compounds were tested in the FLK-1 ELISA assay.
An ELISA assay was conducted to measure the kinase activity of the FLK-1 receptor and more specifically, the inhibition or activation of protein tyrosine kinase activity on the FLK-1 receptor. Specifically, the following assay was conducted to measure kinase activity of the FLK-1 receptor in FLK-1/NIH3T3 cells.
Materials. The following reagents and supplies were used: • a. […] Cappel goat anti-rabbit IgG (catalog no. 55641); • c. PBS (Gibco Catalog No. 450-1300EB); • d. TBSW Buffer (50 mM Tris (pH 7.2), 150 mM NaCl and 0.1% Tween-20); • e. Ethanolamine stock (10% ethanolamine (pH 7.0), stored at 4°C); • f. HNTG buffer (20mM HEPES buffer (pH 7.5), 150mM NaCl, 0.2% Triton X-100, and 10% glycerol); • g. EDTA (0.5 M (pH 7.0) as a 100X stock); • h. Sodium ortho vanadate (0.5 M as a 100X stock); • i. Sodium pyro phosphate (0.2M as a 100X stock); • j. NUNC 96 well V bottom polypropylene plates (Applied Scientific Catalog No. AS-72092); • k. NIH3T3 C7#3 Cells (FLK-1 expressing cells); • l. DMEM with 1X high glucose L Glutamine (catalog No. 11965-050); • m. FBS, Gibco (catalog no. 16000-028); • n. L-glutamine, Gibco (catalog no. 25030-016); • o. VEGF, PeproTech, Inc. (catalog no. 100-20)(kept as 1 µg/100 µl stock in Milli-Q dH2O and stored at -20°C; • p. Affinity purified anti-FLK-1 antiserum which can be obtained or purified as follows: • 1. Prepare a Tresyl-Activated Agarose/Flk-1-D column by incubating 10 ml of Tresyl-Activated Agarose with 20 mg of purified GST-Flk-1-D fusion protein in 100mM sodium bicarbonate (pH 9.6) buffer overnight at 4 °C. • 2. Wash the column once with PBS. • 3. Block the excess sites on the column with 2 M glycine for 2 hours at 4°C. • 4. Wash the column with PBS. • 5. Incubate the column with Rabbit anti-Flk-1D production bleed for 2 hours at 4 °C. • 6. Wash the column with PBS. • 7. Elute antiserum with 100 mM Citric Acid, pH3.0 and neutralize the eluate immediately with 2 M Tris, pH 9.0. • 8. Dialyize the eluate against PBS overnight at 4 °C with 3 changes of buffer (sample to buffer ratio is 1:100). • 9. Adjust the dialyized antiserum to 5% glycerol and store at -80 °C in small aliquotes. • q.
Protocol. The following protocol was used for conducting the assay: • 1. Coat Corning 96-well elisa plates with 1.0µg per well Cappel Anti-rabbit IgG antibody in 0.1M Na2CO3 pH 9.6. Bring final volume to 150 µl per well. Coat plates overnight at 4°C. Plates can be kept up to two weeks when stored at 4°C. • 2. Grow cells in Growth media(DMEM, supplemental with 2.0mM L-Glutamine, 10% FBS) in suitable culture dishes until confluent at 37°C, 5% CO2. • 3. Harvest cells by trypsinization and seed in Corning 25850 polystyrene 96-well roundbottom cell plates, 25.000 cells/well in 200µl of growth media. • 4. Grow cells at least one day at 37°C, 5% CO2. • 5. Wash cells with D-PBS 1X. • 6. Add 200µl/well of starvation media (DMEM, 2.0mM 1-Glutamine, 0.1% FBS). Incubate overnight at 37°C, 5% CO2. • 7. Dilute Compounds/Extracts 1:20 in polypropylene 96 well plates using starvation media. Dilute dimethylsulfoxide 1:20 for use in control wells. • 8. Remove starvation media from 96 well cell culture plates and add 162 µl of fresh starvation media to each well. • 9. Add 18µl of 1:20 diluted Compound/Extract dilution (from step 7) to each well plus the 1:20 dimethylsulfoxide dilution to the control wells (+/- VEGF), for a final dilution of 1:200 after cell stimulation. […]

[2] = molecular target: PDGF-R (Homo sapiens, UniProt P09619); experiment: PDGF-R ELISA; format: cell-based
Chain of PDGF-R (P09619 33-1106, species assumed): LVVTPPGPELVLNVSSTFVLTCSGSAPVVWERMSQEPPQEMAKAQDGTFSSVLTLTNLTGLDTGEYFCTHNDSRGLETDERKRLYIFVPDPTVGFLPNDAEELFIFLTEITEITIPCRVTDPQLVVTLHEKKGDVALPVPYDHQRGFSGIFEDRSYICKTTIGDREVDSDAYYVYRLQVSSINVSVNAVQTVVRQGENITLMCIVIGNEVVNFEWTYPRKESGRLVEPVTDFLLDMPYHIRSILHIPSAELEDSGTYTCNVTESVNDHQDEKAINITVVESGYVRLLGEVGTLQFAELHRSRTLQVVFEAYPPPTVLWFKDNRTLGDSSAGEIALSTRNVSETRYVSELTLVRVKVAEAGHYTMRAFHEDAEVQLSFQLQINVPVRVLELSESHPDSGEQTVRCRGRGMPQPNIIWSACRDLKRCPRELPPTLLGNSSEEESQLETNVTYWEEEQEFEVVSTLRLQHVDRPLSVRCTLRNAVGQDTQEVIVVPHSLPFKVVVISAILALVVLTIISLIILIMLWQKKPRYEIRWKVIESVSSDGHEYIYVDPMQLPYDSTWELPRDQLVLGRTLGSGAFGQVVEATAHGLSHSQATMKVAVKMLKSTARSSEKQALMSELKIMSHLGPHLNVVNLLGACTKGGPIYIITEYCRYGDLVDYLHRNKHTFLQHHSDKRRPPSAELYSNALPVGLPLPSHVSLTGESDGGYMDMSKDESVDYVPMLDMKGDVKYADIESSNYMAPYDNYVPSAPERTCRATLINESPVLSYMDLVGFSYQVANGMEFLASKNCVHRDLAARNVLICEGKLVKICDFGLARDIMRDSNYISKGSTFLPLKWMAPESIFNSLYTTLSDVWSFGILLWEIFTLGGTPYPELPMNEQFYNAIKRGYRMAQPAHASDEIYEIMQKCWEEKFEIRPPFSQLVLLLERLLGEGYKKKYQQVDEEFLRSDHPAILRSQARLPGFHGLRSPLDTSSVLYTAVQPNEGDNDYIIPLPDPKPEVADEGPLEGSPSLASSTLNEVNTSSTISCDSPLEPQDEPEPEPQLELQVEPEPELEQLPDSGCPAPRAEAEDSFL
Excerpt: A PDGF-R ELISA is described in International Patent Publication No. WO 96/40116, published December 19, 1996 by Tang et al.

T1 sequence (P35918 20-1345): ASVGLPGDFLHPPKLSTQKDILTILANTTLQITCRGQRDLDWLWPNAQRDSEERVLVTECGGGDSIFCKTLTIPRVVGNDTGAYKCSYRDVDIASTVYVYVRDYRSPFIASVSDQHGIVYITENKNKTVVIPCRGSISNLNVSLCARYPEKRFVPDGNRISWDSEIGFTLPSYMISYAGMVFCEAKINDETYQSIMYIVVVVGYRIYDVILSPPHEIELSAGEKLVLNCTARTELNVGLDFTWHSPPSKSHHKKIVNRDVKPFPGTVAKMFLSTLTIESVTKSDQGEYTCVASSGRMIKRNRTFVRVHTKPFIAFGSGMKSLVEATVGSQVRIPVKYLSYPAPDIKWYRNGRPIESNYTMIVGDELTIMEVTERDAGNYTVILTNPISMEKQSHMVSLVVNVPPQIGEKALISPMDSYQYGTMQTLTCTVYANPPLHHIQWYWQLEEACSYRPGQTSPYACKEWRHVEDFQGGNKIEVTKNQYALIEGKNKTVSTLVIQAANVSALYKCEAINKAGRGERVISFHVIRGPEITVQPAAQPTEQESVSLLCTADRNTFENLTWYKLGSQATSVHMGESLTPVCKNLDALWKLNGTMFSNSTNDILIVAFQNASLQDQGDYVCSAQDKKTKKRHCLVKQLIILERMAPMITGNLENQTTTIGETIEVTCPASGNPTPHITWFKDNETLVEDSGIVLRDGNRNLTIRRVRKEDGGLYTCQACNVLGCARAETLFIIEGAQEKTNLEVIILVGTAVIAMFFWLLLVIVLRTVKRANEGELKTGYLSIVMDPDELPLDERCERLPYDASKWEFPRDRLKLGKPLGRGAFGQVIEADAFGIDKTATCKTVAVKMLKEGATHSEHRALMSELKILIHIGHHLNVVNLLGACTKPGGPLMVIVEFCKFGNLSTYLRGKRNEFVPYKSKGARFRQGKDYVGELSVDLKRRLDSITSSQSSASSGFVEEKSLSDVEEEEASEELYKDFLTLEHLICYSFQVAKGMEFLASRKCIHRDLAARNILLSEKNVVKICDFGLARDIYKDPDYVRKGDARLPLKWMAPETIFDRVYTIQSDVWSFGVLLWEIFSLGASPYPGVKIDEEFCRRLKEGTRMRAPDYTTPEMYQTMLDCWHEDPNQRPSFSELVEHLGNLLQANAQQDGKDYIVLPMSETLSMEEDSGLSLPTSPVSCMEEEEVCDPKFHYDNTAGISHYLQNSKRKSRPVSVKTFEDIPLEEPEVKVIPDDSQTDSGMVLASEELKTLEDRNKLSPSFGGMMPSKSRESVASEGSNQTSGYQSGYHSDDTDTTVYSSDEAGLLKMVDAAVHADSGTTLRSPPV

| SMILES | Fik Kinase %Inhibition [1] | PDGF Kinase %Inhibition [2] |
| --- | --- | --- |
| Cc1c(Br)ccc2c1C(=Cc1ccco1)C(=O)N2 [10718/C10] | -11.9% | – |
| Cc1c(Br)ccc2c1C(=Cc1ccc([N+](=O)[O-])o1)C(=O)N2 [10718/C11] | 11.4% | – |
| CCOC(=O)c1c(C)[nH]c(C=C2C(=O)Nc3ccc(S(=O)(=O)NC)cc32)c1C [10718/D02] | 13.3% | – |
| CNS(=O)(=O)c1ccc2c(c1)C(=Cc1cc(OC)cc(Br)c1O)C(=O)N2 [10718/D03] | 1.1% | – |
| CNS(=O)(=O)c1ccc2c(c1)C(=Cc1ccc3ccccc3c1O)C(=O)N2 [10718/D04] | 6.4% | – |
| CCOC(=O)CCc1c(C(=O)OCC)[nH]c(C=C2C(=O)Nc3ccc(S(=O)(=O)NC)cc32)c1CC(=O)OCC [10718/D05] | 11.5% | – |
| CCOC(=O)c1cc(C=C2C(=O)Nc3ccc(S(=O)(=O)NC)cc32)oc1C [10718/D06] | 15.8% | – |
| C=C(C)C1CC=C(C=C2C(=O)Nc3ccc(S(=O)(=O)NC)cc32)CC1 (stereo not shown) [10731/D04] | 9.3% | 6.5% |
| CNS(=O)(=O)c1ccc2c(c1)C(=Cc1coc3ccc(C(C)C)cc3c1=O)C(=O)N2 [10731/D05] | 32.7% | 46.0% |
| CNS(=O)(=O)c1ccc2c(c1)C(=Cc1coc3ccc(C)cc3c1=O)C(=O)N2 [10731/D06] | 16.1% | 8.0% |
| CNS(=O)(=O)c1ccc2c(c1)C(=Cc1coc3ccc([N+](=O)[O-])cc3c1=O)C(=O)N2 [10731/D07] | 12.3% | 2.7% |
| CNS(=O)(=O)c1ccc2c(c1)C(=Cc1c[nH]c(=O)[nH]c1=O)C(=O)N2 [10731/D08] | 25.8% | -8.7% |
| CNS(=O)(=O)c1ccc2c(c1)C(=Cc1c[nH]c3ccc(OC)cc13)C(=O)N2 [10731/D09] | 6.1% | -2.0% |
| CNS(=O)(=O)c1ccc2c(c1)C(=C1C(=O)N(C)c3ccccc31)C(=O)N2 [10731/D10] | 13.0% | 9.9% |
| CCn1c2ccccc2c2cc(C=C3C(=O)Nc4ccc(S(=O)(=O)Nc5ccc(C(F)(F)F)cc5)cc43)ccc21 [10731/E02] | 11.2% | 13.7% |
| Cc1cc2occ(C=C3C(=O)Nc4ccc(S(=O)(=O)Nc5ccc(C(F)(F)F)cc5)cc43)c(=O)c2cc1C [10731/E03] | -1.4% | 15.6% |
| C=C(C)C1CC=C(C=C2C(=O)Nc3ccc(S(=O)(=O)Nc4ccc(C(F)(F)F)cc4)cc32)CC1 (stereo not shown) [10731/E04] | 23.8% | 30.8% |
| CC(C)c1ccc2occ(C=C3C(=O)Nc4ccc(S(=O)(=O)Nc5ccc(C(F)(F)F)cc5)cc43)c(=O)c2c1 [10731/E05] | 7.0% | 27.0% |
| Cc1ccc2occ(C=C3C(=O)Nc4ccc(S(=O)(=O)Nc5ccc(C(F)(F)F)cc5)cc43)c(=O)c2c1 [10731/E06] | 2.6% | -12.0% |
| O=C1Nc2ccc(S(=O)(=O)Nc3ccc(C(F)(F)F)cc3)cc2C1=Cc1coc2ccc([N+](=O)[O-])cc2c1=O [10731/E07] | 12.6% | 3.7% |

| SMILES | Fik Kinase %Inhibition [1] | PDGF Kinase %Inhibition [2] |
| --- | --- | --- |
| O=C1Nc2ccc(S(=O)(=O)Nc3ccc(C(F)(F)F)cc3)cc2C1=Cc1c[nH]c(=O)[nH]c1=O [10731/E08] | 10.5% | 8.9% |
| COc1ccc2[nH]cc(C=C3C(=O)Nc4ccc(S(=O)(=O)Nc5ccc(C(F)(F)F)cc5)cc43)c2c1 [10731/E09] | 52.5% | 23.2% |
| CN1C(=O)C(=C2C(=O)Nc3ccc(S(=O)(=O)Nc4ccc(C(F)(F)F)cc4)cc32)c2ccccc21 [10731/E10] | 33.1% | 21.7% |
| CCn1c2ccccc2c2cc(C=C3C(=O)Nc4ccc(S(=O)(=O)N5CCOCC5)cc43)ccc21 [10731/F02] | 11.1% | 14.1% |
| Cc1cc2occ(C=C3C(=O)Nc4ccc(S(=O)(=O)N5CCOCC5)cc43)c(=O)c2cc1C [10731/F03] | 7.9% | 11.8% |
| C=C(C)C1CC=C(C=C2C(=O)Nc3ccc(S(=O)(=O)N4CCOCC4)cc32)CC1 (stereo not shown) [10731/F04] | 24.5% | 3.2% |
| CC(C)c1ccc2occ(C=C3C(=O)Nc4ccc(S(=O)(=O)N5CCOCC5)cc43)c(=O)c2c1 [10731/F05] | 17.6% | 20.3% |
| Cc1ccc2occ(C=C3C(=O)Nc4ccc(S(=O)(=O)N5CCOCC5)cc43)c(=O)c2c1 [10731/F06] | 2.2% | -23.4% |
| O=C1Nc2ccc(S(=O)(=O)N3CCOCC3)cc2C1=Cc1coc2ccc([N+](=O)[O-])cc2c1=O [10731/F07] | 13.3% | 1.3% |
| O=C1Nc2ccc(S(=O)(=O)N3CCOCC3)cc2C1=Cc1c[nH]c(=O)[nH]c1=O [10731/F08] | 9.2% | 4.1% |
| COc1ccc2[nH]cc(C=C3C(=O)Nc4ccc(S(=O)(=O)N5CCOCC5)cc43)c2c1 [10731/F09] | 2.3% | 15.6% |
| CN1C(=O)C(=C2C(=O)Nc3ccc(S(=O)(=O)N4CCOCC4)cc32)c2ccccc21 [10731/F10] | 11.0% | 28.4% |
| CCn1c2ccccc2c2cc(C=C3C(=O)Nc4ccc(CCCl)cc43)ccc21 [10731/G02] | 16.8% | -10.1% |
| Cc1cc2occ(C=C3C(=O)Nc4ccc(CCCl)cc43)c(=O)c2cc1C [10731/G03] | 12.9% | 6.5% |
| C=C(C)C1CC=C(C=C2C(=O)Nc3ccc(CCCl)cc32)CC1 (stereo not shown) [10731/G04] | 14.5% | 0.3% |
| CC(C)c1ccc2occ(C=C3C(=O)Nc4ccc(CCCl)cc43)c(=O)c2c1 [10731/G05] | 17.5% | 8.0% |
| Cc1ccc2occ(C=C3C(=O)Nc4ccc(CCCl)cc43)c(=O)c2c1 [10731/G06] | 10.8% | -0.6% |
| O=C1Nc2ccc(CCCl)cc2C1=Cc1coc2ccc([N+](=O)[O-])cc2c1=O [10731/G07] | 31.6% | 40.8% |
| O=C1Nc2ccc(CCCl)cc2C1=Cc1c[nH]c(=O)[nH]c1=O [10731/G08] | 18.2% | -13.9% |
| COc1ccc2[nH]cc(C=C3C(=O)Nc4ccc(CCCl)cc43)c2c1 [10731/G09] | 13.3% | -8.7% |
